Reference: US8471005B2 (Cephalon, Inc., priority 2008, dated 2013)
pIC50: −log10 of the molar value. Where two headings read alike, the source gives them in different places.

Tests used:
ALK = target: T1, ALK (Homo sapiens, UniProt Q9UM73); experiment: ALK Kinase Assay (ELISA/TRF, PLC-γ substrate); type: biochemical; settings: read-out: ALK Potency
T1 construct: host or cells: baculovirus expression system
Outline: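 Read-out is time-resolved fluorescence from a Eu-N1-labeled PT66 antibody that binds phosphorylated PLC-γ, the substrate coated at 10 μg/mL in TBS. ALK at 30 ng/ml starts the reaction, which runs 15 minutes at 37° C.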

JAK2 = target: T2, JAK2 (Homo sapiens, UniProt O60674); experiment: Recombinant Human JAK2 Kinase Assay (TRF); type: biochemical; settings: read-out: JAK2 Potency
T2 construct: host or cells: baculovirus expression system
T2 sequence (O60674 whole entry): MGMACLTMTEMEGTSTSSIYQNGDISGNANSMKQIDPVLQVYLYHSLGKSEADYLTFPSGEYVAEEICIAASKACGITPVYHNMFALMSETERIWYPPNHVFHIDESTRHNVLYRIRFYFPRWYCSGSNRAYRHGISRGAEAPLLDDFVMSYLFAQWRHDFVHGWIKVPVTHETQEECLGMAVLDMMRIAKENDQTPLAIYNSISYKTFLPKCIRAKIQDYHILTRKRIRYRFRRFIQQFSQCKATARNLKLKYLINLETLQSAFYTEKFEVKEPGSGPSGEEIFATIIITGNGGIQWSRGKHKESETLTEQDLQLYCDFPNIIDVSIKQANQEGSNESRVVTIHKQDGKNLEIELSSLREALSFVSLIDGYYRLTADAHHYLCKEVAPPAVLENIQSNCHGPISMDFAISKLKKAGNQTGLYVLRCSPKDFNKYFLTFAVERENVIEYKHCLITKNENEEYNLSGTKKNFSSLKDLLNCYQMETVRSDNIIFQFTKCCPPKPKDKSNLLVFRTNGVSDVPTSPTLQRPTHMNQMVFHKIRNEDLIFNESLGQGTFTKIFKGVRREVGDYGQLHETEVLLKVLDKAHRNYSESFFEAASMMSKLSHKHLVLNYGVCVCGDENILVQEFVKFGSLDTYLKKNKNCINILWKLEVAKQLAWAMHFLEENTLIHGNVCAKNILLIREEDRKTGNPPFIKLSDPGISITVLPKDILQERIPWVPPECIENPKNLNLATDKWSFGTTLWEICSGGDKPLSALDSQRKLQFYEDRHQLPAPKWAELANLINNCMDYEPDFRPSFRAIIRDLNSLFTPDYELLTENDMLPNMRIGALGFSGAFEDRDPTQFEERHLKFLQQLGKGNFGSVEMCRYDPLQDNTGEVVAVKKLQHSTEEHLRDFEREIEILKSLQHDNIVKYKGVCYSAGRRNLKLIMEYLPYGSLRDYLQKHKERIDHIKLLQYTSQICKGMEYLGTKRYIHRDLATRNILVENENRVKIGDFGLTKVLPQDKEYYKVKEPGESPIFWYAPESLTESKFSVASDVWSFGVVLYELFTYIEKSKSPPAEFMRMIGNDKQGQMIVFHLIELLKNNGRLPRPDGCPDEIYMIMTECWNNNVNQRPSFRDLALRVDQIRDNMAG
Outline: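 Baculovirus-expressed JAK2 (15 ng/ml) phosphorylated a biotinylated 15-mer peptide captured on Neutravidin-coated plates, in 20 mM HEPES pH 7.2 with 0.2 μM ATP, 1 mM MnCl2, 0.1% BSA and 2.5% DMSO. Reaction ran 20 min at room temperature; phosphopeptide was detected by time-resolved fluorescence with Eu-N1-labelled PY100 antibody.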

[1] = ALK kinase inhibition, 1 μM ATP
[2] = JAK2 kinase inhibition, 0.2 μM ATP

T1 sequence (Q9UM73 19-1620): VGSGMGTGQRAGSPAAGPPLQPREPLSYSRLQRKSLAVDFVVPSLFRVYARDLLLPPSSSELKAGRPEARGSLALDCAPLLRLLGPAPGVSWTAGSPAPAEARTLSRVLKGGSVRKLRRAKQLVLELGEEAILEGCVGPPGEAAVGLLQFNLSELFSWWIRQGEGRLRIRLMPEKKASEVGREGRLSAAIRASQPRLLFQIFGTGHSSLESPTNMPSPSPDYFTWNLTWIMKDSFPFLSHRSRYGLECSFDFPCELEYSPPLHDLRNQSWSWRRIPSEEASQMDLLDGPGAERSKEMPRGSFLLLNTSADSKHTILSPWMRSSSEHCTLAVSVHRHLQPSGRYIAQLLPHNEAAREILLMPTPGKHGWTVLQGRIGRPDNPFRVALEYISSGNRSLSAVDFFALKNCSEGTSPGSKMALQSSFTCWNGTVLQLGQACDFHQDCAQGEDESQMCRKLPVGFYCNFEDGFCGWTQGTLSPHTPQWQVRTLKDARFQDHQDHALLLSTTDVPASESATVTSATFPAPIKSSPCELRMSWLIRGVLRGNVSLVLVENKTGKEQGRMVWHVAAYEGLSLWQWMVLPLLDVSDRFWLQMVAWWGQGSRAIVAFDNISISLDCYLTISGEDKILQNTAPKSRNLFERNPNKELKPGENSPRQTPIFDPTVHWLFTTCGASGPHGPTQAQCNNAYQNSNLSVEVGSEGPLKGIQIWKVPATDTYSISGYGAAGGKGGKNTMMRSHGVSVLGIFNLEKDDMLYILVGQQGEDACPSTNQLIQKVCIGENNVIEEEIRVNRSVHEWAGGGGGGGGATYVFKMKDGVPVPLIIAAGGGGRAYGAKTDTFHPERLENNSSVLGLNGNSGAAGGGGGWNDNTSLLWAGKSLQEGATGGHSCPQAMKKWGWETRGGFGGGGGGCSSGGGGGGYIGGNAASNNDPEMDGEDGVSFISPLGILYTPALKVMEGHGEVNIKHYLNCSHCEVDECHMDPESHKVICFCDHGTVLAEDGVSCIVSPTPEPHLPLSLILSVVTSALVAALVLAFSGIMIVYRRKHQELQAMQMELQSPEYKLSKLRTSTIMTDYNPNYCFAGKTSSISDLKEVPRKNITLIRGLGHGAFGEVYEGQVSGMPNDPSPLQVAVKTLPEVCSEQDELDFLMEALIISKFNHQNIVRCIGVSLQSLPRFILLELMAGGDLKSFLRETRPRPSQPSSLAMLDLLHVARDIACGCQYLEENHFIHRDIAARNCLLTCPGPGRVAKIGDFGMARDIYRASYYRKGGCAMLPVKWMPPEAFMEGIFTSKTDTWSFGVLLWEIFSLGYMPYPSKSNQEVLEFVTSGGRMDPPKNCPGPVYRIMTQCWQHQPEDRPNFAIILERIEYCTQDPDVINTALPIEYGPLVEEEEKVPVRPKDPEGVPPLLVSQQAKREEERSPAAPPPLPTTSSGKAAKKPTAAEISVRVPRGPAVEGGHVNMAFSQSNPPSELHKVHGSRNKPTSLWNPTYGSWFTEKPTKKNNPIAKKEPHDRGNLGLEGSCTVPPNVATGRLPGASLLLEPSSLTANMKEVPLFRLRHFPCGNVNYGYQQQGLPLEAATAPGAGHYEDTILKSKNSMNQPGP

pIC50 (ALK; ALK Kinase Inhibition)	pIC50 (JAK2; JAK2 Kinase Inhibition)	pIC50 (ALK; [1])	pIC50 (JAK2; [2])	Structure (SMILES)
6.00 to 7.00	> 7.00			CN1CCN(c2ccc(Nc3ncc4ccc(-c5cccc(S(C)(=O)=O)c5)n4n3)cc2)CC1 [Example 82, [7-(3-Methanesulfonyl-phenyl)-pyrrolo[2,1-f][1,2,4]triazin-2-yl]-[4-(4-methyl-piperazin-1-yl)-phenyl]-amine]
		> 7.00	> 7.00	COc1cc(N2CCN(C[C@H](C)O)CC2)ccc1Nc1ncc2ccc(-c3cccc4c3OCCO4)n2n1 [Example 547, (S)-1-(4-{4-[7-(2,3-Dihydro-1,4-benzodioxin-5-yl)-pyrrolo[2,1-f][1,2,4]triazin-2-ylamino]-3-methoxy-phenyl}-piperazin-1-yl)-propan-2-ol]
5.00 to 6.00	> 7.00			CN1C(=O)Cc2cc(Nc3ncc4ccc(Nc5cccnc5N(C)S(C)(=O)=O)n4n3)ccc21 [Example 387, N-Methyl-N-{3-[2-(1-methyl-2-oxo-2,3-dihydro-1H-indol-5-ylamino)-pyrrolo[2,1-f][1,2,4]triazin-7-ylamino]-pyridin-2-yl}-methanesulfonamide]
		6.00 to 7.00	> 7.00	CS(=O)(=O)CCNCc1cccc(-c2ccc3cnc(Nc4ccc(N5CCOCC5)cc4)nn23)c1 [Example 1209, (7-{3-[(2-Methanesulfonyl-ethylamino)-methyl]-phenyl}-pyrrolo[2,1-f][1,2,4]triazin-2-yl)-(4-morpholin-4-yl-phenyl)-amine]
6.00 to 7.00	> 7.00			CS(=O)(=O)Nc1ccc(-c2ccc3cnc(Nc4ccc(N5CCOCC5)cc4)nn23)cc1 [Example 200, N-{4-[2-(4-Morpholin-4-yl-phenylamino)-pyrrolo[2,1-f][1,2,4]triazin-7-yl]-phenyl}-methanesulfonamide]
		> 7.00	5.00 to 6.00	COc1ccc(-c2ccc3cnc(Nc4ccc(C5CCN(CC(N)=O)CC5)cc4OC)nn23)c(N(C)S(C)(=O)=O)c1 [Example 1273, 2-[4-(4-{7-[2-(Methanesulfonyl-methyl-amino)-4-methoxy-phenyl]-pyrrolo[2,1-f][1,2,4]triazin-2-ylamino}-3-methoxy-phenyl)-piperidin-1-yl]-acetamide]
		> 7.00	6.00 to 7.00	COc1cc(C2CCN(CC(N)=O)CC2)ccc1Nc1ncc2ccc(-c3cccc4c3OCC4)n2n1 [Example 703, 2-(4-{4-[7-(2,3-Dihydro-benzofuran-7-yl)-pyrrolo[2,1-f][1,2,4]triazin-2-ylamino]-3-methoxy-phenyl}-piperidin-1-yl)-acetamide]
6.00 to 7.00	6.00 to 7.00			Cc1cc2[nH]c(=O)oc2cc1Nc1ncc2ccc(-c3ccccc3N(C)S(C)(=O)=O)n2n1 [Example 1492, N-Methyl-N-{2-[2-(5-methyl-2-oxo-2,3-dihydro-benzoxazol-6-ylamino)-pyrrolo[2,1-f][1,2,4]triazin-7-yl]-phenyl}-methanesulfonamide]
6.00 to 7.00	> 7.00			O=S(=O)(Nc1cccc(-c2ccc3cnc(Nc4ccc(N5CCOCC5)cc4)nn23)c1)C1CC1 [Example 414, Cyclopropanesulfonic acid {3-[2-(4-morpholin-4-yl-phenylamino)-pyrrolo[2,1-f][1,2,4]triazin-7-yl]-phenyl}-amide]
		> 7.00	> 7.00	COc1cc(N2CCC(N3CCCOCC3)CC2)ccc1Nc1ncc2ccc(-c3ccccc3OC)n2n1 [Example 780, [2-Methoxy-4-(4-[1,4]oxazepan-4-yl-piperidin-1-yl)-phenyl]-[7-(2-methoxy-phenyl)-pyrrolo[2,1-f][1,2,4]triazin-2-yl]-amine]
6.00 to 7.00	> 7.00			CN1CCN(c2ccc(Nc3ncc4ccc(-c5ccc(S(=O)(=O)N(C)C)cc5)n4n3)cc2)CC1 [Example 83, N,N-Dimethyl-4-{2-[4-(4-methyl-piperazin-1-yl)-phenylamino]-pyrrolo[2,1-f][1,2,4]triazin-7-yl}-benzenesulfonamide]
		< 5.00	> 7.00	COc1ccc(-c2ccc3cnc(Nc4ccc(CN5CCS(=O)(=O)CC5)cc4)nn23)cn1 [Example 1051, [4-(1,1-Dioxo-1$1(6)-thiomorpholin-4-ylmethyl)-phenyl]-[7-(6-methoxy-pyridin-3-yl)-pyrrolo[2,1-f][1,2,4]triazin-2-yl]-amine]

Further lines, the compound ahead of its results:

Structure (SMILES)	pIC50 (ALK; ALK Kinase Inhibition)	pIC50 (JAK2; JAK2 Kinase Inhibition)	pIC50 (ALK; [1])	pIC50 (JAK2; [2])
CNS(=O)(=O)c1cccc(-c2ccc3cnc(Nc4ccc(N5CCN(C)CC5)cc4)nn23)c1 [Example 366, N-Methyl-3-{2-[4-(4-methyl-piperazin-1-yl)-phenylamino]-pyrrolo[2,1-f][1,2,4]triazin-7-yl}-benzenesulfonamide]	6.00 to 7.00	> 7.00		
CN(C)Cc1ccc(-c2ccc3cnc(Nc4ccc(C5CCN(CC(N)=O)CC5)cc4)nn23)cc1 [Example 1433, 2-(4-{4-[7-(4-Dimethylaminomethyl-phenyl)-pyrrolo[2,1-f][1,2,4]triazin-2-ylamino]-phenyl}-piperidin-1-yl)-acetamide]	5.00 to 6.00	5.00 to 6.00		
COc1ccccc1-c1ccc2cnc(Nc3ccc4nc(C(C)(C)C)[nH]c4c3)nn12 [Example 1352, (2-tert-Butyl-3H-benzimidazol-5-yl)-[7-(2-methoxy-phenyl)-pyrrolo[2,1-f][1,2,4]triazin-2-yl]-amine]			6.00 to 7.00	> 7.00
COc1cc(N2CCN(C[C@H](C)O)CC2)ccc1Nc1ncc2ccc(-c3ccccc3[S+](C)[O-])n2n1 (stereo partly drawn) [Example 545, (S)-1-(4-{4-[7-(2-Methanesulfinyl-phenyl)-pyrrolo[2,1-f][1,2,4]triazin-2-ylamino]-3-methoxy-phenyl}-piperazin-1-yl)-propan-2-ol]			6.00 to 7.00	6.00 to 7.00
CS(=O)(=O)c1ccc(-c2ccc3cnc(Nc4ccc(N5CCCC(N6CCOCC6)C5)cc4)nn23)cc1 (stereo not drawn) [Example 346, [7-(4-Methanesulfonyl-phenyl)-pyrrolo[2,1-f][1,2,4]triazin-2-yl]-[4-(3-morpholin-4-yl-piperidin-1-yl)-phenyl]-amine]	6.00 to 7.00	> 7.00		
COc1cc2c(cc1Nc1ncc3ccc(-c4ccccc4OC)n3n1)CN(CC(N)=O)C2 [Example 864, 2-{5-Methoxy-6-[7-(2-methoxy-phenyl)-pyrrolo[2,1-f][1,2,4]triazin-2-ylamino]-1,3-dihydro-isoindol-2-yl}-acetamide]			> 7.00	> 7.00
CN(c1ccccc1-c1ccc2cnc(Nc3nccs3)nn12)S(C)(=O)=O [Example 1362, N-Methyl-N-{2-[2-(thiazol-2-ylamino)-pyrrolo[2,1-f][1,2,4]triazin-7-yl]-phenyl}-methanesulfonamide]			5.00 to 6.00	6.00 to 7.00
CC(=O)Nc1cc(Nc2ncc3ccc(-c4cccc(S(=O)(=O)NC(C)(C)C)c4)n3n2)ccc1C [Example 1398, N-{5-[7-(3-tert-Butylsulfamoyl-phenyl)-pyrrolo[2,1-f][1,2,4]triazin-2-ylamino]-2-methyl-phenyl}-acetamide]	6.00 to 7.00	> 7.00		
C[C@@H](O)CN1CCN(c2cccc(Nc3ncc4ccc(-c5cccc(Cl)c5)n4n3)c2)CC1 [Example 215, (R)-1-(4-{3-[7-(3-Chloro-phenyl)-pyrrolo[2,1-f][1,2,4]triazin-2-ylamino]-phenyl}-piperazin-1-yl)-propan-2-ol]	> 7.00	> 7.00		
